Results from ChEMBL document CHEMBL4507268 (2021).

Legend:
Details in all cases: Compound concentration 1000.0 nM
[1] = target: T1, NUAK family SNF1-like kinase 2 (Homo sapiens) (UniProt Q9H093)
T1 sequence (whole entry): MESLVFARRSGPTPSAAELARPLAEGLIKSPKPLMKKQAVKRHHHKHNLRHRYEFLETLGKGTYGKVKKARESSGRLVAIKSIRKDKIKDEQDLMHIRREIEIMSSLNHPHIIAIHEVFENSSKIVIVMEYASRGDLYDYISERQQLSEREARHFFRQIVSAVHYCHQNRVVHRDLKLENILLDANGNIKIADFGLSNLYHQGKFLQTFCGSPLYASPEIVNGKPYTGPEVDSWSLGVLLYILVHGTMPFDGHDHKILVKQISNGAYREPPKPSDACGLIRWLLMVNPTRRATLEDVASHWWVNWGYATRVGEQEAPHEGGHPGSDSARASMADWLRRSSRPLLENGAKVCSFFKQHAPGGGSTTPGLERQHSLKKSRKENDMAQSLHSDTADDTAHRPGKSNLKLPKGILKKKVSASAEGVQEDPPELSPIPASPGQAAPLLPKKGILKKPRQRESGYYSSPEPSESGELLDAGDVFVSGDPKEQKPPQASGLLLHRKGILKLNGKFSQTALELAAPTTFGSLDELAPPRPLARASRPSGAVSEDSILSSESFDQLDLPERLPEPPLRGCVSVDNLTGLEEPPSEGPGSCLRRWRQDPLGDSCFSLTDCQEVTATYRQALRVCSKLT

[2] = target: Ephrin type-A receptor 2 (Homo sapiens) (UniProt P29317)
[3] = target: Receptor-interacting serine/threonine-protein kinase 2 (Homo sapiens) (UniProt O43353)
[4] = target: Cyclin-dependent kinase 11B (Homo sapiens) (UniProt P21127)
[5] = target: T2, Myosin-IIIb (Homo sapiens) (UniProt Q8WXR4)
T2 sequence (whole entry): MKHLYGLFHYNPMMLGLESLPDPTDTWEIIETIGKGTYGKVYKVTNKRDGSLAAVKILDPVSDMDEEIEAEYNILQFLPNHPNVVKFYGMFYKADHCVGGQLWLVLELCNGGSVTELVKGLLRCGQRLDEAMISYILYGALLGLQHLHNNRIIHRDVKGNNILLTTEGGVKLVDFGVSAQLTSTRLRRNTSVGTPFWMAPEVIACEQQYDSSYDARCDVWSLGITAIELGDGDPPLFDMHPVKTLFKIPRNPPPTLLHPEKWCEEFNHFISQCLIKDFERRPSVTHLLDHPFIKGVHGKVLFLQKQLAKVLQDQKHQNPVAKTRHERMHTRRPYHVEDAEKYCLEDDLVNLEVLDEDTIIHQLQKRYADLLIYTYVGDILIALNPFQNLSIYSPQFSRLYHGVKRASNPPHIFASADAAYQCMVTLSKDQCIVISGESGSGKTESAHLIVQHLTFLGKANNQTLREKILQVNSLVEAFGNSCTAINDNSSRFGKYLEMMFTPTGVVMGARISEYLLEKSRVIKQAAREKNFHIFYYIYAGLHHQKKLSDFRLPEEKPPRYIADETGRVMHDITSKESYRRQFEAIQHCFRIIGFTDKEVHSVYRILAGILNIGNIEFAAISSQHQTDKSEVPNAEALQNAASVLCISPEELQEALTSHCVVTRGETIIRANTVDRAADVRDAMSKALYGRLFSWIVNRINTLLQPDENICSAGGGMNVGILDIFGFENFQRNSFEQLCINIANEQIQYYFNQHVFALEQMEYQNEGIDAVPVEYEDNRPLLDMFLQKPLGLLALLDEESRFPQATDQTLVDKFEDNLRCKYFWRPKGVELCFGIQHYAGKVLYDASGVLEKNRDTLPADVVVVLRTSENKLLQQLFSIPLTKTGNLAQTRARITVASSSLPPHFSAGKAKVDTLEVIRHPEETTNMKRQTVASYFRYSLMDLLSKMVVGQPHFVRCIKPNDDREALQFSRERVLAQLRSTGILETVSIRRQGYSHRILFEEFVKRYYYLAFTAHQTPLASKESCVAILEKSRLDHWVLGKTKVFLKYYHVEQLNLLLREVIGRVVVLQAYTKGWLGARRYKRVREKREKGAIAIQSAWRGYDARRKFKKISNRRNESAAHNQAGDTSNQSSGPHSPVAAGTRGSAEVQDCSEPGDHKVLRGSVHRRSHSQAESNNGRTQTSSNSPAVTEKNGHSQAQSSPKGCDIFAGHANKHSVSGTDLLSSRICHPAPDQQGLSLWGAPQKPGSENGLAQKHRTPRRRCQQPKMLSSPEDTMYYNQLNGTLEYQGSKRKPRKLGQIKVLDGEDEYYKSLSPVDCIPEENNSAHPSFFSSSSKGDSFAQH

[6] = target: T3, cAMP-dependent protein kinase catalytic subunit PRKX (Homo sapiens) (UniProt P51817)
T3 sequence (whole entry): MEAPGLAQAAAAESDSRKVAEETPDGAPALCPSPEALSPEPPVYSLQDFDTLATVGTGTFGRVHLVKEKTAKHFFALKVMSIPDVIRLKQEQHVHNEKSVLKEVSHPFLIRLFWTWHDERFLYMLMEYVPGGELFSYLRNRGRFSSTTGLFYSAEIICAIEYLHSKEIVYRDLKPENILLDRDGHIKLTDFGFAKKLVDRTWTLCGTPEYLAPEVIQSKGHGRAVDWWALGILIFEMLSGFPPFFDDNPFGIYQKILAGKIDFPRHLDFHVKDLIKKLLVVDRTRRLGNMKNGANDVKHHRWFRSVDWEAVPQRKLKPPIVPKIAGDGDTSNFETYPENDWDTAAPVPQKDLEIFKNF

[7] = target: Serine/threonine-protein kinase SIK1 (Homo sapiens) (UniProt P57059)
[8] = target: Cyclin-dependent kinase 2 homolog (Plasmodium falciparum (isolate 3D7)) (UniProt P61075)
[9] = target: Serine/threonine-protein kinase PAK 1 (Homo sapiens) (UniProt Q13153)
[10] = target: Non-receptor tyrosine-protein kinase TYK2 (Homo sapiens) (UniProt P29597)
[11] = target: Phosphatidylinositol 4-phosphate 3-kinase C2 domain-containing subunit beta (Homo sapiens) (UniProt O00750)
[12] = target: Wee1-like protein kinase (Homo sapiens) (UniProt P30291)
[13] = system: Tyrosine-protein kinase ABL1 (Homo sapiens), P00519 [T315I]

Measured: residual activity

Sequence of Cyclin-dependent kinase 11B (Homo sapiens) (P21127 whole entry): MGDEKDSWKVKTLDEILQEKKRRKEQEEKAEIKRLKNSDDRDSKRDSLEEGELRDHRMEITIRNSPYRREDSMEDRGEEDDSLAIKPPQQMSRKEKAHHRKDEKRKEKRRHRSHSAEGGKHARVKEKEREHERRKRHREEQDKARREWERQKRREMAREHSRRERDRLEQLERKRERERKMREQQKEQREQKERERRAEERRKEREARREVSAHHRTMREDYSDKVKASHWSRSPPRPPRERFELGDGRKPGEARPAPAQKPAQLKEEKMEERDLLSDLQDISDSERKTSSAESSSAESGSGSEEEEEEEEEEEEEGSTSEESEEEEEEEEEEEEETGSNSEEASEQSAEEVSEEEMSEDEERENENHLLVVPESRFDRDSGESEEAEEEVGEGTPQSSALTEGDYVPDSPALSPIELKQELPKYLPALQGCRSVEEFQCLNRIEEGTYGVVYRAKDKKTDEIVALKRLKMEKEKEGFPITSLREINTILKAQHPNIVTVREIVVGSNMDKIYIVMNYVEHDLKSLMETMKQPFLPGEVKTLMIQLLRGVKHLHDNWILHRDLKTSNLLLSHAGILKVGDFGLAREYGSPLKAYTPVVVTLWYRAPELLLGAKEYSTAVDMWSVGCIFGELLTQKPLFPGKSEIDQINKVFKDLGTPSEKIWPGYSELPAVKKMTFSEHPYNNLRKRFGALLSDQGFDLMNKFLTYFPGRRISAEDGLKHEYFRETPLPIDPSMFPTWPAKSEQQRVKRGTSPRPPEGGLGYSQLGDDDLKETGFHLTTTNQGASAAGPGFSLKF
Sequence of Non-receptor tyrosine-protein kinase TYK2 (Homo sapiens) (P29597 whole entry, the tested form may be a part): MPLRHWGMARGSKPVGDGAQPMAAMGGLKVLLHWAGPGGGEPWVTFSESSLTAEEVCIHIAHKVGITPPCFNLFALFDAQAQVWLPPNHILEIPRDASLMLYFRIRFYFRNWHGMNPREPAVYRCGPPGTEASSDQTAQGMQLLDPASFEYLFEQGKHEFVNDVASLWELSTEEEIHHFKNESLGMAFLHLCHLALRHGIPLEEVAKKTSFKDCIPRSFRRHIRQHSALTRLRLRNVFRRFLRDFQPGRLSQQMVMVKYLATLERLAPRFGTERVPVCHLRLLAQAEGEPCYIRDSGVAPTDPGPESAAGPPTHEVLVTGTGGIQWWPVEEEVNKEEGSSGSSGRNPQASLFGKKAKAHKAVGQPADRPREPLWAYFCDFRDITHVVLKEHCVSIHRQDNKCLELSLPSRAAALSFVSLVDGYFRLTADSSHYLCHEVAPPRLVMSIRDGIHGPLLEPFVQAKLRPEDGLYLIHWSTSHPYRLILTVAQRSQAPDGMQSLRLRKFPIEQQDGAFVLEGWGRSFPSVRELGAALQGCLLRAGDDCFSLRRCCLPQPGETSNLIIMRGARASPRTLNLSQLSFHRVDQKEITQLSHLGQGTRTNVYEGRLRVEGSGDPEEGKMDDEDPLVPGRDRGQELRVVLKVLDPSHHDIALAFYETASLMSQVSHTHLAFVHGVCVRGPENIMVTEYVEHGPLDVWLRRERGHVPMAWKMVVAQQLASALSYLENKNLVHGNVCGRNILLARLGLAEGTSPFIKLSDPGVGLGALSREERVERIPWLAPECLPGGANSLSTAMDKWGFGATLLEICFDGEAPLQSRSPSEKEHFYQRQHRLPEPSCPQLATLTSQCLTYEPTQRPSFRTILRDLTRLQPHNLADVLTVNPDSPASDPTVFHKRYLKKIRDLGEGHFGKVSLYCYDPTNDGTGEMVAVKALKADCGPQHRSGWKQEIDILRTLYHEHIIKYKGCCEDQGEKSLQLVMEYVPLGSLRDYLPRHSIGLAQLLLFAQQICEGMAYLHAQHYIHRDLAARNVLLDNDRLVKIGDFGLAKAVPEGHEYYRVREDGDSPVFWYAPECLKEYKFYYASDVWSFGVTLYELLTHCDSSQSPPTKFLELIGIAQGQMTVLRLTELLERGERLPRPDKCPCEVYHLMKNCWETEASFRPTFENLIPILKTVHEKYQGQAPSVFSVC
Sequence of Cyclin-dependent kinase 2 homolog (Plasmodium falciparum (isolate 3D7)) (P61075 whole entry): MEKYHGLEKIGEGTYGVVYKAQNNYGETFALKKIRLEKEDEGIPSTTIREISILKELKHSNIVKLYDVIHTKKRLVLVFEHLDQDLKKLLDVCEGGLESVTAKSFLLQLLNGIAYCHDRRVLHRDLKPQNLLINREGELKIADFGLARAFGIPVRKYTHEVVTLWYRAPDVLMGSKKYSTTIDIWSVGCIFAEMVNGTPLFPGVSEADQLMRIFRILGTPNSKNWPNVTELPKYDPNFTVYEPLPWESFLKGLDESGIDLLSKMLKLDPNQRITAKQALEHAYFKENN
Sequence of Wee1-like protein kinase (Homo sapiens) (P30291 whole entry, looked up): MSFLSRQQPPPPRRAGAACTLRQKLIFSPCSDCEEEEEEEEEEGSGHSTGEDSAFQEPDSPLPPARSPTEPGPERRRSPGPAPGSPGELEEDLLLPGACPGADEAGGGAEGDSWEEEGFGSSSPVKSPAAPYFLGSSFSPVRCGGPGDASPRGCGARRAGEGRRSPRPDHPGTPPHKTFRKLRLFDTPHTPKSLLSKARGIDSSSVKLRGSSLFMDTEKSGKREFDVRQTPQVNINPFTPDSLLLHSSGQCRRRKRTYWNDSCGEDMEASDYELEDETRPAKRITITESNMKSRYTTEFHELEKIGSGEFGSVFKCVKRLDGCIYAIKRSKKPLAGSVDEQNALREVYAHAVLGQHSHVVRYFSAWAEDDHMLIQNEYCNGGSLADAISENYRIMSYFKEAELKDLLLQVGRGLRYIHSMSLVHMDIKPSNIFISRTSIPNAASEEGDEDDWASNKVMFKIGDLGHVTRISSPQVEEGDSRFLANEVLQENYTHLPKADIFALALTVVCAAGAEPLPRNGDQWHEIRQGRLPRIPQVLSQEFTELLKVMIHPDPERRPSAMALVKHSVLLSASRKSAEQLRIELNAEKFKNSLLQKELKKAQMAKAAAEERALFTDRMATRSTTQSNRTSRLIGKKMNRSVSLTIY
Sequence of Ephrin type-A receptor 2 (Homo sapiens) (P29317 whole entry): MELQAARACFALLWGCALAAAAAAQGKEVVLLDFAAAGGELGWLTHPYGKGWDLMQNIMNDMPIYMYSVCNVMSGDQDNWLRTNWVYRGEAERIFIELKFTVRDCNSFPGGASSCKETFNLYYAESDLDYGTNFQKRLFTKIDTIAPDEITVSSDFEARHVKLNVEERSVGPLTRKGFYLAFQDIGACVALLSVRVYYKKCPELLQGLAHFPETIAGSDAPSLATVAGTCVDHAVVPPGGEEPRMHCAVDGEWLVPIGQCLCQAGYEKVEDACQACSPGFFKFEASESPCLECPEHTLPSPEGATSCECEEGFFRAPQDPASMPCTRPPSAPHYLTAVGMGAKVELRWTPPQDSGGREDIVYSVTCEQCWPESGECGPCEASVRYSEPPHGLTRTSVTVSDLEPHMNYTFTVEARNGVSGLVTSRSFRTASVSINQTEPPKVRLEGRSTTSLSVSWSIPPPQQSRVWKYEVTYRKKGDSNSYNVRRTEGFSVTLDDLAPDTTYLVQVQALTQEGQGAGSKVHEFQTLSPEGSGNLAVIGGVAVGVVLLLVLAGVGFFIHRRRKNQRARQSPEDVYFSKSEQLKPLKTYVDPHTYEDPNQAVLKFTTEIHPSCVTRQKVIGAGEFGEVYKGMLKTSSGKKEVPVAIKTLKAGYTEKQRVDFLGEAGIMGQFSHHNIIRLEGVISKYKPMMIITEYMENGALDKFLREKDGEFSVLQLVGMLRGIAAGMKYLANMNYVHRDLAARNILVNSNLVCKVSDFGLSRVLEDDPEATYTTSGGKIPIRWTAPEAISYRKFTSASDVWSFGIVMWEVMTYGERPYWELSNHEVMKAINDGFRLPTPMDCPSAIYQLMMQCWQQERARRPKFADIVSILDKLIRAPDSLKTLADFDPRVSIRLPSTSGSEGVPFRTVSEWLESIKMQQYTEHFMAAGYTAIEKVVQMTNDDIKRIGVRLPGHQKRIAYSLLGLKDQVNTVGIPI
Sequence of Receptor-interacting serine/threonine-protein kinase 2 (Homo sapiens) (O43353 whole entry): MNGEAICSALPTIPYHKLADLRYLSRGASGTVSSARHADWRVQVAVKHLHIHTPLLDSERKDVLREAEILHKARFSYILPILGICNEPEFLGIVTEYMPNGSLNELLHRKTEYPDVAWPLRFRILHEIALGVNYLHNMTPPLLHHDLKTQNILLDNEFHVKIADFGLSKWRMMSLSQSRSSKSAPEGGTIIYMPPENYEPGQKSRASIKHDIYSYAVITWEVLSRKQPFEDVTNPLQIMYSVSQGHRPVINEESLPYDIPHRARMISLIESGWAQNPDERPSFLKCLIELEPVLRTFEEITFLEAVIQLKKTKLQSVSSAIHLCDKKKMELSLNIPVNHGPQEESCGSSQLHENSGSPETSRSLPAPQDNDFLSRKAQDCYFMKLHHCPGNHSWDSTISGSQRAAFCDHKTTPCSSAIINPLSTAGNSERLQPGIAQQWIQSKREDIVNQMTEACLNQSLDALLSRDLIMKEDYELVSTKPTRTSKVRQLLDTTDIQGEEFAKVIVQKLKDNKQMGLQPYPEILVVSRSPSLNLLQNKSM
Sequence of Serine/threonine-protein kinase PAK 1 (Homo sapiens) (Q13153 whole entry): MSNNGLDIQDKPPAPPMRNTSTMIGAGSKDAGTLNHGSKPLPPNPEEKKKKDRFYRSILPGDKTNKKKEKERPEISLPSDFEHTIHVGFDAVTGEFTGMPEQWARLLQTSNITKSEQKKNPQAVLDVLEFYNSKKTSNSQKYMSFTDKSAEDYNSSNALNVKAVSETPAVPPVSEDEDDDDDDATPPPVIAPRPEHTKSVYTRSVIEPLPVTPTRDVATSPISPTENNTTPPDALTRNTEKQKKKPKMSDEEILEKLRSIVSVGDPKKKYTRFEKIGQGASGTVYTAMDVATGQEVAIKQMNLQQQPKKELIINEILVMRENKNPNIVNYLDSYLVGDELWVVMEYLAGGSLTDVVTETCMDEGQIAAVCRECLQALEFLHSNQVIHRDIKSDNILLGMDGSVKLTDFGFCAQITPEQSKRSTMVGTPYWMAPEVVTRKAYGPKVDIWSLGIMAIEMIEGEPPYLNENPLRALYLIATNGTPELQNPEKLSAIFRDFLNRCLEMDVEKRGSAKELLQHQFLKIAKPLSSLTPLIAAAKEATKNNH

Cc1nc(C2CCN(C(=O)c3ccc(OC(F)(F)F)cc3N)CC2)c2ncc(N3CCN(C)CC3)cc2n1 [BAY-693]
inactive: [1] 81% | [2] 100% | [3] 94% | [4] 87% | [5] 71% | [6] 100% | [7] 100% | [8] 100% | [9] 100% | [10] 88% | [11] 86% | [12] 94% | [13] 89%

CN1CCN(c2cnc3c(C4CCN(C(=O)c5ccc(OC(F)(F)F)cc5N)CC4)ncnc3c2)CC1 [BAY-885]
inactive: [1] 90% | [2] 100% | [3] 100% | [4] 82% | [5] 73% | [6] 100% | [7] 92% | [8] 100% | [9] 93% | [10] 100% | [11] 98% | [12] 96% | [13] 100%
